Data set [1] addresses T1, PPARG (peroxisome proliferator-activated receptor gamma) (Homo sapiens, UniProt P37231).
T1 construct: expressed in transfected cells; host or cells: HepG2
T1 sequence (P37231 1-505): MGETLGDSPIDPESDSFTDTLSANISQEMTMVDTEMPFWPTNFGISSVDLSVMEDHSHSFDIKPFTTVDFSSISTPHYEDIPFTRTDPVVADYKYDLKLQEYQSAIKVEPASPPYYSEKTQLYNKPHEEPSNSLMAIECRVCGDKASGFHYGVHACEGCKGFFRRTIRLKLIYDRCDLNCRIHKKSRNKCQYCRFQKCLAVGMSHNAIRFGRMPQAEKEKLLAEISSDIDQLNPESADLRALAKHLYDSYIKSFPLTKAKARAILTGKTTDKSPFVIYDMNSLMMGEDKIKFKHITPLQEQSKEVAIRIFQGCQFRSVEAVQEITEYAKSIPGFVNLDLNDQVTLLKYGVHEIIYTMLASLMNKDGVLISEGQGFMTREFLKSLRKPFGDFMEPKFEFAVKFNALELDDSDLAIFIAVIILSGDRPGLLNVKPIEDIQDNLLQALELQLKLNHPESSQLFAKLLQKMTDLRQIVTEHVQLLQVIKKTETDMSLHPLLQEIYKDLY
The experiment in a line: ATG_PPARg_TRANS: Factorial reporter gene assay (HepG2). The data set is classed as cell-based. Conditions: HepG2. The procedure, abridged: (§1)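 Seven test concentrations were run, beginning at the MTC and diluted three-fold serially. PXRE activity came from cis reporters, a 48-site MRTU library in HepG2 hepatoma cells. ERRg, FXR and PPARg activity came from trans one-hybrid reporters, an additional 25-member MRTU set.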
(In general: A reporter such as luciferase makes a cellular process visible.)

The test system of a further data set is CYP2B6. The experiment in a line: CLZD_CYP2B6: Change in expression of CYP2B6 (primary human hepatocytes). Format: cell-based. Conditions: 24 hr. A digest of the protocol: (§2)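 Primary human hepatocyte cultures were exposed to test chemicals at 5 concentrations (0.004-40 µM) for 6, 24 or 48 hr.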
Data set [2] addresses T2, PXR (NR1I2) (Homo sapiens, UniProt O75469).
T2 sequence (O75469 1-434): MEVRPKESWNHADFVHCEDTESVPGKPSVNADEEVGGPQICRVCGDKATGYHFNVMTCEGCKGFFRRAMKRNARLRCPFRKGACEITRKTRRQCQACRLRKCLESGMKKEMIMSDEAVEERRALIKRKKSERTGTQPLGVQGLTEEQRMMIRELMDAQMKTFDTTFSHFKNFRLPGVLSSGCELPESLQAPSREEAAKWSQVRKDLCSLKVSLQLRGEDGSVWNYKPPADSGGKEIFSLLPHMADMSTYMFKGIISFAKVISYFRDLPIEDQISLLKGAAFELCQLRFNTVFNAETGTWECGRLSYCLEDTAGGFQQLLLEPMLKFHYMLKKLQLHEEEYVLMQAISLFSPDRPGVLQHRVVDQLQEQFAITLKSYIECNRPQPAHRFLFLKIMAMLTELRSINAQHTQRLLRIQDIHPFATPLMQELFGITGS
The experiment in a line: ATG_PXRE_CIS: Factorial reporter gene assay (HepG2). The conditions noted are these: HepG2. Details: endogenous in cells; host or cells: HepG2. The data set is classed as cell-based. The procedure, abridged:
as §1

The next data set deals with T3, PPARg (PPARG) (Homo sapiens, UniProt P37231).
T3 sequence (P37231 1-505): T1 sequence (P37231 1-505)
The experiment in a line: NVS_NR_hPPARg: Human PPARg Fluorescent Ligand (cell-free HTS). Format: binding. From the text: (§3) These are a collection of biochemical assays measuring binding constants and enzyme inhibition values. Chemicals were initially screened at a single concentration in duplicate wells at a concentration of 10 [drawing 63] M for cytochrome P-450 assays and 25 [drawing 64] M for all others. […] These assays were run by Caliper Life Sciences (Hanover, MD) under contract to EPA. Short assay descriptions are available at: http://www.caliperls.com/products/contract-research/in-vitro/.
(§4) Cell-free HTS Assays: A collection of biochemical assays measuring binding constants and enzyme inhibition values. […] These assays were run by Caliper Life Sciences (Hanover, MD) under contract to EPA. Short assay descriptions are available at http://www.caliperls.com/products/contract-research/in-vitro/. Values for all endpoints were imported into GeneData Screener (Basel, Switzerland) and normalised to solvent controls from the same plate as the tested compounds and expressed as percent of neutral control. Concentration-response curves were fit in GeneData Screener (Basel, Switzerland) Condeseo module using the Hill equation and AC50 values were determined. […] Detailed description of the methods, data and analysis methods for this dataset are described in a separate publication.

For a further data set, the system named is AR (androgen receptor). The experiment in a line: NVS_NR_hAR: Human AR 3H-Methyltrienolone (cell-free HTS). The data set is classed as binding.
Text: as §3, §4

In data set [3] the target is T2, PXR (NR1I2). The experiment in a line: NVS_NR_hPXR: Human PXR Fluormone PXR (SXR) green (cell-free HTS). Format: binding. The procedure, abridged:
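Cell-free biochemical binding assays; chemicals first screened at a single concentration of 25 […] M in duplicate wells. Signals normalised to same-plate solvent controls as percent of neutral control, and AC50 values came from Hill-equation fits of concentration-response curves.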

The subject of the next data set is CYP3A4. Kind of data set: CLZD_CYP3A4: Change in expression of CYP3A4 (primary human hepatocytes). The data set is classed as cell-based. The conditions noted are these: 24 hr. The procedure, abridged:
as §2

Data set [4] addresses T4, PPARA (peroxisome proliferator-activated receptor alpha) (Homo sapiens, UniProt Q07869).
T4 construct: expressed in transfected cells; host or cells: HepG2
T4 sequence (Q07869 1-468): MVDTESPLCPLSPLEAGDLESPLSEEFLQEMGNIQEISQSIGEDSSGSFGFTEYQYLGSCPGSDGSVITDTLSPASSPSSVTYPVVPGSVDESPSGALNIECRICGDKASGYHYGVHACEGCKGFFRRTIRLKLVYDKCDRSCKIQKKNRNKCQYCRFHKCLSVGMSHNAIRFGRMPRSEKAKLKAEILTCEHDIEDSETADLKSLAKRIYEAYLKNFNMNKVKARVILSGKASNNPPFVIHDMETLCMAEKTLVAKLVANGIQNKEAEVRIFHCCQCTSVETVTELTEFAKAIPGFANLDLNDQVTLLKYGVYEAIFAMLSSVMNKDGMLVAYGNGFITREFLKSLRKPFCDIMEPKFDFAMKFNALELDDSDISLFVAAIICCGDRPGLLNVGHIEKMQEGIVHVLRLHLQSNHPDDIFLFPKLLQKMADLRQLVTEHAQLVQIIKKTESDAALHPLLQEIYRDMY
Kind of data set: ATG_PPARa_TRANS: Factorial reporter gene assay (HepG2). Format: cell-based. Set-up: scale not given here. The protocol:
A multiple reporter transcription unit (MRTU) library consisting of 48 transcription factor binding sites was transfected into the HepG2 human liver hepatoma cell line. In addition to the cis-acting reporter genes (CIS), a modification of the approach was used to generate a trans-system (TRANS) with a mammalian one-hybrid assay consisting of an additional 25 MRTU library reporting the activity of nuclear receptor super-family members. […] These assays were performed by Attagene Inc. (Morrisville NC) under contract to EPA.
In addition to the cis-acting reporter genes (CIS), a modification of the approach was used to generate a trans-system (TRANS) with a mammalian one-hybrid assay consisting of an additional 25 MRTU library reporting the activity of nuclear receptor super-family members. […] Chemicals were then tested in the CIS and TRANS assays at seven concentrations starting at the MTC and followed by three-fold serial dilutions. These assays were performed by Attagene Inc. (Morrisville NC) under contract to EPA. Detailed description of the methods, data and analysis methods for this dataset will be presented in a separate publication.

SMILES strings stand for the structures.

Take `O=S(=O)(O)C(F)(F)C(F)(F)C(F)(F)C(F)(F)C(F)(F)C(F)(F)C(F)(F)C(F)(F)F` [r240]: in data set [1], the ATG_PPARg_TRANS is given as 4.585. The CLZD_CYP2B6_24 with CYP2B6 worked out at 4.97. Moreover, at PXR (NR1I2) [2], the ATG_PXRE_CIS was determined as 4.745. The compound further registered an NVS_NR_hPPARg at PPARg (PPARG) of 4.932. In the data set on AR (androgen receptor), this compound showed an NVS_NR_hAR of 4.625. In addition, the NVS_NR_hPXR on PXR (NR1I2) [3] is recorded as 4.496. The same compound showed a CLZD_CYP3A4_24 in the data set with CYP3A4 of 4.541.

`O=C(O)C(F)(F)C(F)(F)C(F)(F)C(F)(F)C(F)(F)C(F)(F)C(F)(F)F` [r241] showed an ATG_PPARa_TRANS in data set [4] of 4.377. On PXR (NR1I2) [2], this compound had an ATG_PXRE_CIS of 4.367.

The record behind these values is paper PMC3038857, “Using Nuclear Receptor Activity to Stratify Hepatocarcinogens” (PLoS ONE, 2011).
